These results are taken from patent US11332435B2, “Method for producing (3S)-3-(4-chloro-3-{[(2S,3R)-2-(4- chlorophenyl)-4,4,4-trifluoro-3-methylbutanoyl]amino}phenyl)-3-cyclo-propylpropanoic acid and the crystalline form thereof for use as a pharmaceutical ingredient” (Bayer Pharma Aktiengesellschaft, priority 2017, dated 2022).

Series [1] is described as follows: stability in the micronization process. The series is classed as physicochemical.
Series [2] in a line: thermodynamic stability of the solid form. The series is classed as physicochemical. The note with it: crystalline modification 1 compared with amorphous form of WO 2012/139888.
Series [3] is described as follows: bioavailability of the solid form. The series is classed as in vivo. The note with it: crystalline form of modification 1.

As for `C[C@H]([C@H](C(=O)Nc1cc([C@@H](CC(=O)O)C2CC2)ccc1Cl)c1ccc(Cl)cc1)C(F)(F)F` [Example I-1, (3S)-3-(4-chloro-3-{[(2S,3R)-2-(4-chlorophenyl)-4,4,4-trifluoro-3-methylbutanoyl]amino}phenyl)-3-cyclopropylpropanoic acid], in series [1], the “stability in the micronization process (conversion, recrystallization)” value was “stable in the micronization process”. The thermodynamic stability entry in series [2] is recorded as “higher thermodynamic stability”. The bioavailability result in series [3] is “reproducible bioavailability”.
